Test results: ChEMBL document CHEMBL2439971, “Design, synthesis and antiproliferative evaluation of fluorenone analogs with DNA topoisomerase I inhibitory properties” (Bioorg Med Chem, 2013)
pIC50: −log10 of the molar value. Active and inactive are the calls of the source. No cut-off for these calls is given here.

Assays:
RXF 393 = assay: Cytotoxicity against human RXF393 cells at 10 uM after 48 hrs by sulforhodamine B assay relative to control; format: functional
ACHN = assay: Cytotoxicity against human ACHN cells at 10 uM after 48 hrs by sulforhodamine B assay relative to control; format: functional
SW-620 = assay: Cytotoxicity against human SW620 cells at 10 uM after 48 hrs by sulforhodamine B assay relative to control; format: functional
HCT-116 = assay: Cytotoxicity against human HCT116 cells at 10 uM after 48 hrs by sulforhodamine B assay relative to control; format: functional
T47D = assay: Cytotoxicity against human T47D cells at 10 uM after 48 hrs by sulforhodamine B assay relative to control; format: functional
Malme-3M = assay: Cytotoxicity against human MALME-3M cells at 10 uM after 48 hrs by sulforhodamine B assay relative to control; format: functional
MOLT-4 = assay: Cytotoxicity against human MOLT4 cells at 10 uM after 48 hrs by sulforhodamine B assay relative to control; format: functional
CCRF-CEM = assay: Cytotoxicity against human CCRF-CEM cells at 10 uM after 48 hrs by sulforhodamine B assay relative to control; format: functional
IGROV-1 = assay: Cytotoxicity against human IGROV1 cells at 10 uM after 48 hrs by sulforhodamine B assay relative to control; format: functional
A549 = assay: Cytotoxicity against human A549 cells at 10 uM after 48 hrs by sulforhodamine B assay relative to control; format: functional
SF-295 = assay: Cytotoxicity against human SF295 cells at 10 uM after 48 hrs by sulforhodamine B assay relative to control; format: functional
UACC-62 = assay: Cytotoxicity against human UACC62 cells at 10 uM after 48 hrs by sulforhodamine B assay relative to control; format: functional
Homo sapiens = species on record: Homo sapiens; assay: Inhibition of telomerase (unknown origin) at 10 uM TRAP assay
OVCAR-3 = assay: Cytotoxicity against human OVCAR3 cells at 10 uM after 48 hrs by sulforhodamine B assay relative to control; format: functional
OVCAR-4 = assay: Cytotoxicity against human OVCAR4 cells at 10 uM after 48 hrs by sulforhodamine B assay relative to control; format: functional
UACC-257 = assay: Cytotoxicity against human UACC257 cells at 10 uM after 48 hrs by sulforhodamine B assay relative to control; format: functional
CAKI-1 = assay: Cytotoxicity against human CAKI-1 cells at 10 uM after 48 hrs by sulforhodamine B assay relative to control; format: functional
[1] = Cytotoxicity against human EKVX cells at 10 uM after 48 hrs by sulforhodamine B assay relative to control; format: functional
MDA-MB-435 = assay: Cytotoxicity against human MDA-MB-435 cells at 10 uM after 48 hrs by sulforhodamine B assay relative to control; format: functional
OVCAR-5 = assay: Cytotoxicity against human OVCAR5 cells at 10 uM after 48 hrs by sulforhodamine B assay relative to control; format: functional
LOX IMVI = assay: Cytotoxicity against human LOXIMVI cells at 10 uM after 48 hrs by sulforhodamine B assay relative to control; format: functional
SNB-75 = assay: Cytotoxicity against human SNB75 cells at 10 uM after 48 hrs by sulforhodamine B assay relative to control; format: functional
HCT-15 = assay: Cytotoxicity against human HCT15 cells at 10 uM after 48 hrs by sulforhodamine B assay relative to control; format: functional
SK-MEL-2 = assay: Cytotoxicity against human SK-MEL-2 cells at 10 uM after 48 hrs by sulforhodamine B assay relative to control; format: functional
MDA-MB-231 = assay: Cytotoxicity against human MDA-MB-231 cells at 10 uM after 48 hrs by sulforhodamine B assay relative to control; format: functional
HOP-62 = assay: Cytotoxicity against human HOP62 cells at 10 uM after 48 hrs by sulforhodamine B assay relative to control; format: functional
RPMI-8226 = assay: Cytotoxicity against human RPMI8226 cells at 10 uM after 48 hrs by sulforhodamine B assay relative to control; format: functional
786-0 = assay: Cytotoxicity against human 786-0 cells at 10 uM after 48 hrs by sulforhodamine B assay relative to control; format: functional
OVCAR-8 = assay: Cytotoxicity against human OVCAR8 cells at 10 uM after 48 hrs by sulforhodamine B assay relative to control; format: functional
SF-268 = assay: Cytotoxicity against human SF268 cells at 10 uM after 48 hrs by sulforhodamine B assay relative to control; format: functional
PC-3 [2] = assay: Cytotoxicity against human PC3 cells at 10 uM after 48 hrs by sulforhodamine B assay relative to control; format: functional
NCI/ADR-RES = assay: Cytotoxicity against human NCI/ADR-RES cells at 10 uM after 48 hrs by sulforhodamine B assay relative to control; format: functional
TK-10 = assay: Cytotoxicity against human TK10 cells at 10 uM after 48 hrs by sulforhodamine B assay relative to control; format: functional
MCF7 = assay: Cytotoxicity against human MCF7 cells at 10 uM after 48 hrs by sulforhodamine B assay relative to control; format: functional
SNB-19 = assay: Cytotoxicity against human SNB19 cells at 10 uM after 48 hrs by sulforhodamine B assay relative to control; format: functional
SF-539 = assay: Cytotoxicity against human SF539 cells at 10 uM after 48 hrs by sulforhodamine B assay relative to control; format: functional
NCI-H322M = assay: Cytotoxicity against human NCI-H322M cells at 10 uM after 48 hrs by sulforhodamine B assay relative to control; format: functional
HT-29 = assay: Cytotoxicity against human HT-29 cells at 10 uM after 48 hrs by sulforhodamine B assay relative to control; format: functional
HCC 2998 = assay: Cytotoxicity against human HCC2998 cells at 10 uM after 48 hrs by sulforhodamine B assay relative to control; format: functional
BT-549 = assay: Cytotoxicity against human BT549 cells at 10 uM after 48 hrs by sulforhodamine B assay relative to control; format: functional
NCI-H23 = assay: Cytotoxicity against human NCI-H23 cells at 10 uM after 48 hrs by sulforhodamine B assay relative to control; format: functional
COLO 205 = assay: Cytotoxicity against human COLO205 cells at 10 uM after 48 hrs by sulforhodamine B assay relative to control; format: functional
SN12C = assay: Cytotoxicity against human SN12C cells at 10 uM after 48 hrs by sulforhodamine B assay relative to control; format: functional
SR = assay: Cytotoxicity against human SR cells at 10 uM after 48 hrs by sulforhodamine B assay relative to control; format: functional
KM12 = assay: Cytotoxicity against human KM12 cells at 10 uM after 48 hrs by sulforhodamine B assay relative to control; format: functional
NCI-H460 = assay: Cytotoxicity against human NCI-H460 cells at 10 uM after 48 hrs by sulforhodamine B assay relative to control; format: functional
NCI-H522 = assay: Cytotoxicity against human NCI-H522 cells at 10 uM after 48 hrs by sulforhodamine B assay relative to control; format: functional
SK-MEL-28 = assay: Cytotoxicity against human SK-MEL-28 cells at 10 uM after 48 hrs by sulforhodamine B assay relative to control; format: functional
HL-60(TB) = assay: Cytotoxicity against human HL-60(TB) cells at 10 uM after 48 hrs by sulforhodamine B assay relative to control; format: functional
U-251 = assay: Cytotoxicity against human U251 cells at 10 uM after 48 hrs by sulforhodamine B assay relative to control; format: functional
SK-MEL-5 = assay: Cytotoxicity against human SK-MEL-5 cells at 10 uM after 48 hrs by sulforhodamine B assay relative to control; format: functional
UO-31 = assay: Cytotoxicity against human UO31 cells at 10 uM after 48 hrs by sulforhodamine B assay relative to control; format: functional
M14 = assay: Cytotoxicity against human M14 cells at 10 uM after 48 hrs by sulforhodamine B assay relative to control; format: functional
NCI-H226 = assay: Cytotoxicity against human NCI-H226 cells at 10 uM after 48 hrs by sulforhodamine B assay relative to control; format: functional
MDA-MB-468 = assay: Cytotoxicity against human MDA-MB-468 cells at 10 uM after 48 hrs by sulforhodamine B assay relative to control; format: functional
K562 = assay: Cytotoxicity against human K562 cells at 10 uM after 48 hrs by sulforhodamine B assay relative to control; format: functional
PC-3 [3] = assay: Cytotoxicity against human PC3 cells after 48 hrs by sulforhodamine B assay; format: functional, cell-based; settings: PC-3, 48 h
[4] = Cytotoxicity against human Hs 578T cells at 10 uM after 48 hrs by sulforhodamine B assay relative to control; format: functional
DU-145 = assay: Cytotoxicity against human DU145 cells at 10 uM after 48 hrs by sulforhodamine B assay relative to control; format: functional

**Q.** What does the source list for CCCNCC(=O)Nc1ccc2c(c1)C(=O)c1cc(NC(=O)CNCCC)ccc1-2?
**A.** Activity (RXF 393): 64.2%; Activity (ACHN): 72.93%; Activity (SW-620): 33.33%; Activity (HCT-116): 34.22%; Activity (T47D): 100.55%; Activity (Malme-3M): 111.89%; Activity (MOLT-4): 41.29%; Activity (CCRF-CEM): 43.54%; Activity (IGROV-1): 67.45%; Activity (A549): 44.21%; Activity (SF-295): 78.31%; Activity (UACC-62): 108.2%; inhibition (Homo sapiens): inactive; Activity (OVCAR-3): 101.73%; Activity (OVCAR-4): 65.9%; Activity (UACC-257): 113.51%; Activity (CAKI-1): 84.88%; Activity [1]: 88.56%; Activity (MDA-MB-435): 74.91%; Activity (OVCAR-5): 115.75%; Activity (LOX IMVI): 63.5%; Activity (SNB-75): 90.2%; Activity (HCT-15): 82.71%; Activity (SK-MEL-2): 114.94%; Activity (MDA-MB-231): 53.48%; Activity (HOP-62): 70.78%; Activity (RPMI-8226): 62.56%; Activity (786-0): 82.05%; Activity (OVCAR-8): 54.46%; Activity (SF-268): 81.33%; Activity (PC-3 [2]): 63.47%; Activity (NCI/ADR-RES): 90.61%; Activity (TK-10): 101.22%; Activity (MCF7): 42.23%; Activity (SNB-19): 96.69%; Activity (SF-539): 86.19%; Activity (NCI-H322M): 55.32%; Activity (HT-29): 7.11%; Activity (HCC 2998): 75.34%; Activity (BT-549): 97.53%; Activity (NCI-H23): 81.96%; Activity (COLO 205): 53.11%; Activity (SN12C): 79.58%; Activity (SR): 26.93%; Activity (KM12): 65.12%; Activity (NCI-H460): 47.28%; Activity (NCI-H522): 63.92%; Activity (SK-MEL-28): 91.46%; Activity (HL-60(TB)): 78.59%; Activity (U-251): 49.16%; Activity (SK-MEL-5): 93.78%; Activity (UO-31): 59.44%; Activity (M14): 84.8%; Activity (NCI-H226): 104.17%; Activity (MDA-MB-468): 60.47%; Activity (K562): 1.15%; pIC50 (PC-3 [3]): 5.26; Activity [4]: 109.04%; Activity (DU-145): 68.94%
